One experiment has as its system P. aer. Kind of experiment: MIC, conventional methods. Format: cell-based, Pseudomonas aeruginosa. On the procedure:
(§1) The following L,L-dipeptides were tested for their minimum inhibitory concentrations against three different bacterial strains as set forth in the table below. The testing protocol followed conventional methods and identified a MIC value reported as micrograms per milliliter (μg/mL). Each of the dipeptides had the following structure: Based on the above results, the sidechain of the methionine mimetic was modified to evaluate the effect of such substitution on MIC values. Again, this test used conventional assays to measure the MIC values of each of these modified mimetics.

The subject of another experiment is S. aureus. Kind of experiment: MIC, conventional methods. Format: cell-based, Staphylococcus aureus. On the procedure:
as §1

A further experiment has as its system E. coli. Kind of experiment: MIC, conventional methods. Type of experiment: cell-based, Escherichia coli. On the procedure:
as §1

Experiment [1] deals with Escherichia coli MMX 102/ATCC 25922. Kind of experiment: Broth microdilution MIC, standard CLSI media, ATCC QC organism. Type of experiment: cell-based. On the procedure:
(§2) The test organisms were originally received from clinical sources or from the American Type Culture Collection (ATCC, Manassas, Va.). When received, the organisms were subcultured onto an appropriate agar medium. Following incubation, colonies were harvested from the plate and a cell suspension was prepared in broth containing cryoprotectant and frozen at −80° C. Prior to the assay, a frozen vial of the culture was partially thawed and the contents were streaked for isolation onto an appropriate growth medium. The agar plates were incubated overnight at 35° C. Test organisms included staphylococci and enterococci (Table 1), streptococci (Table 2), Enterobacteriaceae (Table 3), lactose non-fermenting Gram-negative bacilli (Table 4), Haemophilus influenzae (Table 5), Neisseria gonorrhoeae (Table 5), and Clostridium difficile (Table 6).
(§3) The standard CLSI broth medium was employed for the purposes of quality control of the comparator drugs for the MIC assay and was only used for testing of relevant ATCC quality control isolates as established by CLSI (1-5).
(§4) MIC values were determined using a broth microdilution method as recommended by CLSI (1-5).
(§5) Column 1 was filled with 300 μL of the investigational and control agents at the appropriate stock concentration (40× of the highest test concentration). The Biomek 2000 was used to make eleven 2-fold serial dilutions to create a “mother plate.” The wells of column 12 contained no drug and served as growth control wells.
(§6) The daughter plates were prepared on the Biomek FX instrument which transferred 5 μL of drug solution from each well of the mother plate to the corresponding well of each daughter plate in a single step.
(§7) Standardized inoculum of each organism was prepared per CLSI methods (1-5). The inoculum for each organism was dispensed into sterile reservoirs divided by length (Beckman Coulter), and the Biomek 2000 was used to inoculate the plates. Daughter plates were placed on the Biomek 2000 work surface reversed so that inoculation took place from low to high drug concentration. The Biomek 2000 delivered 10 PL of standardized inoculum into each well resulting in a target inoculum size of approximately 5×10^5 CFU/mL. The wells of the daughter plates ultimately contained 185 μL of media, 5 μL of drug solution at 40× the test concentration, and 10 μL of bacterial inoculum prepared in media.
(§8) Plates were stacked 3-4 high, covered with a lid on the top plate, placed into plastic bags, and incubated at 35° C. under the appropriate conditions, with C. difficile incubated anaerobically. Plates were viewed post-incubation at 18-24 hr and again at 48 hr from the bottom using a plate viewer. […] MICs were read where visible growth of the organism was inhibited.

In experiment [2] the test system is Neisseria gonorrhoeae MMX 683/ATCC 49226. Described as above. Type of experiment: cell-based. Here is the method:
as §2, §3, §4, §5, §6, §7, §8

Experiment [3] concerns Pseudomonas aeruginosa MMX 103/ATCC 27853. Described as above. Type of experiment: cell-based. Here is the method: as §2, §3, §4, §5, §6, §7, §8
Experiment [4] concerns Clostridium difficile MMX 4381/ATCC 700057. The description is as above. Format: cell-based. Conditions: Clostridioides difficile, ATCC700057, 48 hr results. Here is the method:
as §2, §3, §4, §5, §6, §7, §8

The test system of experiment [5] is Enterococcus faecalis MMX 101/ATCC 29212. The experiment is described as above. Type of experiment: cell-based. On the procedure:
as §2, §3, §4, §5, §6, §7, §8

Experiment [6] has as its system Escherichia coli UNT116-1 (ATCC25922). Kind of experiment: Murine superficial skin infection model. Format: in vivo, mice. As to conditions: for Mean log10 CFU/wound: 50 uL topical +4, 8, 12, 16 & 20 hr, sampled +24 hr. On the procedure:
Evaluation of high dose of novel test article(s) for the treatment of a superficial skin infection in mice caused by Escherichia coli. […] Strain has been previously used separately for this infection at […]. Female 5-6 week old CD-1 (18-22 gm) were used in the studies. The mice were housed in groups of 5 with free access to food and water during the study. Cytoxan 150 mg/kg@15 mg/mL on Day-4 ONLY. The mice were anesthetized and kept sedated during the initial procedure under isoflurane vapors (3%). The fur on the back dorsal surface was shaved using electric clippers followed by 'wet shaving' with a disposable razor. The skin was then sterilized with a betadine wash followed by alcohol swab. An area of the shaved skin was then abraded utilizing a sterile gauze pad. Following this procedure, the skin became visibly damaged and characterized by reddening and glistening but no bleeding. […] The skin was then wiped with an alcohol swab and allowed to dry completely. After stripping of the skin, a bacterial infection was initiated by placing on the skin a 5-10 μL droplet containing approximately […] of both bacterium concentrated from overnight cultures in stationary phase. [table] Sponsors test articles were prepared in 0.05% methylcellulose. Fresh formulations were prepared for each day of dosing. The first application of each compound (N=10 mice/group) to the stripped skin of the mice was at 4 hr post-infection then continued q4 hr. For each treatment 50 uL of formulation was applied. Infection control groups' untreated mice were included with each experiment. The test was terminated 4 h after the last topical treatment. Immediately after the mice were euthanized (photographs of the wounds were taken for each group), the wounds, approximately 2 cm2, were excised, rinsed in sterile PBS and homogenized together with 2 ml of phosphate-buffered saline in a Polytron tissue homogenizer. The homogenates were washed once in phosphate-buffered saline to decrease the concentration of ointment. Suitable dilutions of the homogenates were plated on appropriate agar (with the addition of charcoal to avoid the effects of antibiotic carryover) for the organism to determine the number of living bacteria (CFU).

Another experiment relates to E. coli (ATTC 8739). Kind of experiment: Zone of inhibition test. Type of experiment: cell-based. Here is the method: Compound A was tested against L-phenylalanine-(S)-2-amino-N-hydroxy-4-(methylthio)butanamide hydrochloride (Example 3) in a side-by-side comparison in a conventional zone of inhibition test. In this test, both compounds were compared at various concentrations against E. coli (ATTC 8739) grown in a Petri dish using the antibiotic kanamycin as a control.

Where [7] appears, read: Table 1, L,L-dipeptides varied in T.
Where [8] appears, read: Table 2, side chain Q of the methionine mimetic varied.
The mark [9] stands for this setting: Study #2, test articles 700 mg/mL, gentamicin 0.30%.
[10] abbreviates: Study #2, test articles 700 mg/mL, gentamicin 0.30%, topical, +24 hr.

Converted amounts (≈) assume the structure as drawn. “And” between values parts separate entries of the source, which are not always exact repeats. Equal values may be shown once. Where a name gives a salt, the structure may show the parent alone. Where a SMILES comes first, the peptide text is derived from it. [ ]: non-standard residue; d: D form. The star is where a group is joined. ξ: configuration not given here. ξF = NC(Cc1ccccc1)C(=O)O; ξhCys = NC(CCS)C(=O)O; ξC = NC(CS)C(=O)O; tBu = CC(C)(C)*; NHOH = ON*

As usually defined, the MIC is the lowest concentration found to suppress growth. Lower therefore signals greater potency.

Consider `CSCC[C@H](NC(=O)[C@@H](N)CCCCN)C(=O)NO` [Compound E], for which the “MIC P. aer.” value with P. aer. (setting [7]) is more than 1660 µg/mL. The “MIC S. aur.” value in the experiment with S. aureus (setting [7]) amounted to 104 µg/mL (≈ 356 µM). In addition, the “MIC E. coli” value in the experiment with E. coli (setting [7]) came to 312 µg/mL (≈ 1070 µM).
Regarding `C/C(=C\C(=O)OCCCCCCCCC(=O)O)C[C@@H]1OC[C@H](C[C@@H]2O[C@H]2[C@@H](C)[C@H](C)O)[C@@H](O)[C@H]1O` [MUP, mupirocin], the MIC was more than 256 µg/mL in [1] (ATCC25922, 24 hr results); more than 256 µg/mL in experiment [1] (ATCC25922, 48 hr results); more than 256 µg/mL in [2] (ATCC49226, 24 hr results); more than 256 µg/mL in experiment [2] (ATCC49226, 48 hr results); more than 256 µg/mL in [3] (ATCC27853, 24 hr results); more than 256 µg/mL in experiment [3] (ATCC27853, 48 hr results). Also, the MIC was more than 256 µg/mL in [4]; 256 µg/mL (≈ 511 µM) in [5] (ATCC29212, 24 hr results); more than 256 µg/mL in experiment [5] (ATCC29212, 48 hr results).
With `CCCCSCCC(NC(=O)CN)C(=O)NO` (centres unmarked) [K], in the experiment with P. aer. (setting [8]), the “MIC P. aer.” value came to 138 µg/mL (≈ 524 µM). Also, the “MIC S. aur.” value against S. aureus (setting [8]) stood at 60 µg/mL (≈ 228 µM). In addition, in the experiment on E. coli (setting [8]), the “MIC E. coli” value is 150 µg/mL (≈ 570 µM).
On to `CC(C)(C)SCCC(NC(=O)CN)C(=O)NO` (centres unmarked) [L] (H-Gly-[ξhCys](tBu)-{NHOH}), for which the “MIC P. aer.” value against P. aer. (setting [8]) came to 624 µg/mL (≈ 2370 µM). Besides, the “MIC S. aur.” value against S. aureus (setting [8]) turned out to be 77 µg/mL (≈ 292 µM). In the experiment with E. coli (setting [8]), the “MIC E. coli” value was determined as 207 µg/mL (≈ 786 µM).
In the case of `CCSCCC(NC(=O)CN)C(=O)NO` (centres unmarked) [J] (H-Gly-[ξhCys](Et)-{NHOH}), in the experiment with P. aer. (setting [8]), the “MIC P. aer.” value came to 554 µg/mL (≈ 2350 µM). Moreover, the “MIC S. aur.” value with S. aureus (setting [8]) was found to be 60 µg/mL (≈ 255 µM). The “MIC E. coli” value in the experiment with E. coli (setting [8]) came to 129 µg/mL (≈ 548 µM).
Consider Gentamicin, for which, in [6] (Study #1, test articles 500 mg/mL, gentamicin 0.30%, wounds wrongly sprayed with 70% EtOH for test articles), the “Mean log10 CFU/wound” value amounted to 2.35 log10 CFU/wound. In addition, in [6] (Study #1, test articles 500 mg/mL, gentamicin 0.30%, topical, +24 hr), the “Mean log10 Change vs. +24 hr” value is given as −5.37 log10. Besides, in [6] (setting [9]), the “reduction of bacterial skin burden compared to the 24 hour untreated control” value turned out to be 5.98 log10 CFU/wound and the “Mean log10 CFU/wound” value was 2.46 log10 CFU/wound. In experiment [6] (setting [10]), the “Log 10 CFU/wound, individual animal” value was 2.83 Log 10 CFU/wound and 2.35 Log 10 CFU/wound (8×) and 2.95 Log 10 CFU/wound; the “Mean log10 Change vs. +4 hr” value was −1.36 log10; the “Mean log10 Change vs. +24 hr” value was −5.98 log10. Further, the “95.00% CI of diff., Tukey's multiple comparisons test” value in [6] (Study #2, vs. +4 hr Infection Control) is given as −2.209 to −0.5115. Besides, the “95.00% CI of diff., Tukey's multiple comparisons test” value in experiment [6] (Study #2, vs. +24 hr Infection control) is −6.678 to −5.292.
`CSCC[C@H](NC(=O)[C@H](C)N)C(=O)NO` [B] (H-Ala-Met-{NHOH}): the “MIC P. aer.” value in the experiment on P. aer. (setting [7]) was 1040 µg/mL (≈ 4420 µM). For the same compound, in the experiment with S. aureus (setting [7]), the “MIC S. aur.” value came to 131 µg/mL (≈ 557 µM). Further, the “MIC E. coli” value against E. coli (setting [7]) is 158 µg/mL (≈ 671 µM).
As to `CSCC[C@H](NC(=O)C(N)Cc1ccccc1)C(=O)NO` (stereo partly drawn) [Example 3, L-phenylalanine-(S)-2-amino-N-hydroxy-4-(methylthio)butanamide hydrochloride] (H-[ξF]-Met-{NHOH}), in the experiment with E. coli (ATTC 8739) (E. coli grown in a Petri dish, FIG. 1A/1B), the “concentration at which a zone of inhibition was shown” value stood at 12.5 µg. In the experiment on E. coli (ATTC 8739) (cpd. A at 50 μg, Ex. 3 at 12.5 μg), the “strength of the zone of inhibition, in words” value was “substantially stronger than the zone of inhibition for cpd. A at 50 μg”.
`CCSCC(NC(=O)CN)C(=O)NO` (centres unmarked) [M] (H-Gly-[ξC](Et)-{NHOH}): in the experiment on P. aer. (setting [8]), the “MIC P. aer.” value amounted to 832 µg/mL (≈ 3760 µM). The “MIC S. aur.” value against S. aureus (setting [8]) came out at 104 µg/mL (≈ 470 µM). The “MIC E. coli” value against E. coli (setting [8]) is 159 µg/mL (≈ 719 µM).

Values taken from US20180282271A1, “ANTIBIOTIC AMINO ACID MIMETICS” (priority 2017, published 2018).
